Article PMC6680932, “Structure–Antioxidant–Antiproliferative Activity Relationships of Natural C7 and C7–C8 Hydroxylated Flavones and Flavanones” (Antioxidants, 2019)
Like-named read-outs stand apart in the source and are kept apart here.

What was measured:
[1] = tested on: LoVo/DX (colon cancer doxorubicin-resistant); test: Antiproliferative activity in vitro, SRB assay; assay type: cell-based, human; conditions: 72 h exposure, read-out: IC50 ± SD LoVo/DX
[2] = tested on: DU 145 (prostate cancer); test: Antiproliferative activity in vitro, SRB assay; assay type: cell-based, human; conditions: read-out: IC50 ± SD DU 145
[3] = tested on: LoVo (colon cancer); test: Antiproliferative activity in vitro, SRB assay; assay type: cell-based, human; conditions: read-out: IC50 ± SD LoVo
Method: (§1) The antiproliferative studies were performed in vitro using human cancer cell lines—MV-4-11 (biphenotypic B myelomonocytic leukemia), MCF7 (breast carcinoma), LoVo (colon cancer), LoVo/DX (colon cancer doxorubicin-resistant), and DU 145 (prostate cancer)—and normal human cell lines—MCF 10A (breast cells) and HLMEC (lung microvascular endothelial cells). The cell lines MV-4-11, LoVo, DU 145, and MCF 10A were obtained from the American Type Culture Collection (Rockville, Maryland, USA), MCF7 from the European Collection of Authenticated Cell Cultures (ECACC, Salisbury, UK), LoVo/DX courtesy of Professor E. Borowski (Technical University of Gdansk, Poland), and HLMECs (which had been already immortalized by transfection with pSV3-neoplasmid containing large T-antigen gene) were the kind gift of Professor Claudine Kieda (Center for Molecular Biophysics, Orleans, France). The cell lines are being maintained in the Hirszfeld Institute of Immunology and Experimental Therapy, Polish Academy of Sciences (HIIET, PAS), Wroclaw, Poland. All cell lines were grown at 37 °C with 5% CO2 humidified atmosphere. The MV-4-11 cells were cultured in RPMI 1640 medium with GlutaMAX (Gibco, Scotland, UK), supplemented with 1 mM sodium pyruvate and 10% fetal bovine serum (both from Sigma-Aldrich, Poznan, Poland). The MCF7 cells were cultured in Eagle medium (HIIET, PAS, Wroclaw, Poland) supplemented with 2 mM L-glutamine, 10% fetal bovine serum, 1% nonessential amino acid solution, and 0.8 mg/L of insulin (all from Sigma-Aldrich, Poznan, Poland). The LoVo and LoVo/DX cells were cultured in a 1:1 (v/v) mixture of RPMI 1640 and Opti-MEM (both HIIET, PAS, Wroclaw, Poland), supplemented with 1 mM sodium pyruvate, 2 mM L-glutamine, and 5% fetal bovine serum (all from Sigma-Aldrich, Poznan, Poland). For LoVo/DX cells, additionally 10 µg/100 mL of doxorubicin (Accord Healthcare) was added to the medium. DU 145 cells were cultured in Eagle medium (HIIET, PAS, Wroclaw, Poland) supplemented with 1 mM sodium pyruvate, 4 mM L-glutamine, and 10% fetal bovine serum (all from Sigma-Aldrich, Poznan, Poland). The MCF 10A cells were cultured in the F-12 nutrient mixture (Gibco, Scotland, UK), supplemented with 5% horse serum (Gibco, Scotland, UK), 0.05 μg/mL of cholera toxin (Vibrio cholerae), 0.5 μg/mL of hydrocortisone, 10 μg/mL of insulin, and 20 ng/mL of human epidermal growth factor (all from Sigma-Aldrich, Poznan, Poland). The HLMEC cells were cultured in the RPMI 1640 medium (HIIET, PAS, Wroclaw, Poland) with the addition of 2 mM L-glutamine (Sigma-Aldrich, Poznan, Poland) and 10% fetal bovine serum (GE Healthcare). All culture media were supplemented with 100 units/mL penicillin (Polfa Tarchomin S.A., Warsaw, Poland) and 100 µg/mL streptomycin (Sigma-Aldrich, Poznan, Poland). Twenty-four hours before addition of the tested agents, the cells were plated in 96-well plates (Sarstedt, Germany) at a density of 1 × 10^4 (1 × 10^3 for HLMEC and 0.75 × 10^4 for MCF7) cells per well in 100 μL of culture medium.
(§2) Tested compounds were dissolved in DMSO and then diluted in a 1:1 (v/v) mixture of RPMI 1640 (HIIET, PAS, Wroclaw, Poland) and Opti-MEM (Gibco, Scotland, UK) medium supplemented with 2 mM L-glutamine (Sigma-Aldrich, Poznan, Poland), 5% fetal bovine serum (GE Healthcare), 100 units/mL penicillin (Polfa Tarchomin S.A., Warsaw, Poland), and 100 µg/mL streptomycin (Sigma-Aldrich, Poznan, Poland). The antiproliferative effects of the flavonoids were examined after 72 h of exposure of the cultured cells to varying concentrations of the tested agents (from 0.1 to 100 μg/mL) using the MTT (for MV-4-11 cells) or SRB assay described below. Cisplatin (chemotherapy drug used to treat a number of cancers) was used as a positive control. The results are presented as an inhibitory concentration 50 (IC50), which is the concentration of the tested agent that inhibits proliferation of the cell population by 50%. IC50 values for each experiment were calculated separately. […]

[4] = tested on: MCF7 (breast carcinoma); test: Antiproliferative activity in vitro, SRB assay; assay type: cell-based, human; conditions: read-out: IC50 ± SD MCF7
Method: as §1, §2

[5] = tested on: HLMEC (lung microvascular endothelial cells); test: Antiproliferative activity in vitro, SRB assay; assay type: cell-based, human; conditions: read-out: IC50 ± SD HLMEC
Method: as §1, §2

[6] = tested on: MCF 10A (breast cells); test: Antiproliferative activity in vitro, SRB assay; assay type: cell-based, human; conditions: read-out: IC50 ± SD MCF 10A
Method: as §1, §2

[7] = FRAP (ferric ion reducing antioxidant power) assay; conditions: for TEAC FRAP: 10 min, 593 nm, mean ± SD
Method: (§3) The antioxidant capacity of flavonoids was measured in three separate tests: ABTS, DPPH, and ferric ion reducing antioxidant power (FRAP) assays (ABTS, DPPH, and FRAP reagents from Sigma-Aldrich). All tested compounds were dissolved in DMSO. All determinations were performed in triplicate. Standard curves were prepared for all assays using different concentrations of Trolox (6-hydroxy-2,5,7,8-tetramethylchroman-2-carboxylic acid) (Sigma-Aldrich). Trolox is a water-soluble analogue of vitamin E with high antioxidant activity, commonly used as a control and a reference in studies of antioxidant activity. The results were expressed as the equivalent of μmol Trolox per μmol of the test compound. The absorbance was measured using a UV-2401 PC spectrophotometer (Shimadzu, Kyoto, Japan). Concentrations of the tested samples were in the range from 50 µg/mL to 10 mg/mL.
The FRAP method is based on measuring the ability of antioxidants to reduce ferric 2,4,6-tris(2-pyridyl)-1,3,5-triazine [Fe(III)-TPTZ] in the blue colored ferrous form, which absorbs light at λ = 593 nm. The Fe(III)-TPTZ reagent was prepared as a mixture of acetate buffer (pH 3.6), 10 mM TPTZ in 40 mM HCl, and 20 mM FeCl3 in the ratio of 10:1:1 (v/v/v). The FRAP reagent was freshly prepared before each experiment. The samples (0.1 mL) were mixed in polystyrene cuvettes with 3 mL of ferric complex and 0.9 mL of distilled water. The absorbance was measured after 10 min at λ = 593 nm.

[8] = ABTS radical cation decolorization assay; conditions: for TEAC ABTS: 6 min incubation, 734 nm, mean ± SD; for increase of antioxidant activity in ABTS test, biotransformation product vs substrate: 8-hydroxylated product relative to the substrate from which it was obtained
Method: as §3
The radical cation scavenging capacity of the tested compounds was examined against ABTS^+ (2,2’-azino-bis(3-ethylbenzo-thiazoline-6-sulfonic acid) according to the procedure described by Re et al. with some modifications. The test sample (30 μL) of known concentration was mixed in a polystyrene cuvette with 3 mL of ABTS solution with a measured absorption of 0.700 at a wavelength of λ = 734 nm. After 6 min of incubation, the absorption of samples was recorded. The ABTS reagent was freshly prepared before each experiment.

[9] = DPPH free radical scavenging activity assay; conditions: for TEAC DPPH: 10 min, 517 nm, mean ± SD; for increase of antioxidant activity in DPPH test, biotransformation product vs substrate: 8-hydroxylated product relative to the substrate from which it was obtained
Method: as §3
The DPPH (2,2-diphenyl-1-picrylhydrazyl) radical scavenging activity of samples was determined according to the method described by Yen and Chen with some modifications. Samples (0.1 mL) of known concentration were mixed in polystyrene cuvettes with 2 mL of 0.04 mM DPPH in ethanol and 0.4 mL of ethanol. The absorbance was measured after 10 min at λ = 517 nm. The DPPH reagent was freshly prepared before each experiment.

[10] = tested on: MV-4-11 (biphenotypic B myelomonocytic leukemia); test: Antiproliferative activity in vitro, MTT assay; assay type: cell-based, human; conditions: read-out: IC50 ± SD MV-4-11
[11] = Homo sapiens, LoVo, 72 h, 72 h exposure, SRB
[12] = Homo sapiens, MCF7, 72 h exposure, SRB
[13] = Homo sapiens, Endothelial cell, 72 h exposure, SRB, normal cell line
[14] = Homo sapiens, MV4-11, 72 h exposure
[15] = 72 h exposure, SRB, normal cell line

SMILES | IC50 ([1]; Homo sapiens, LoVo/DX) [µM] | IC50 [3, 11] [µM] | IC50 [4, 12] [µM] | TEAC FRAP [7] | TEAC ABTS [8] | TEAC DPPH [9] | IC50 [5, 13] [µM] | increase of antioxidant activity in ABTS test, biotransformation product vs substrate [8] | increase of antioxidant activity in DPPH test, biotransformation product vs substrate [9] | further results
O=C1C[C@@H](c2ccc(O)c(O)c2)Oc2cc(O)cc(O)c21 [Compound 7, eriodictyol] | 99.2 ± 12.5 |  |  | 10.619 ± 0.319 µmol trolox per µmol of tested | 13.988 ± 0.251 µmol trolox per µmol of tested | 9.582 ± 0.315 µmol trolox per µmol of tested |  |  |  | IC50 ([2]; Homo sapiens, DU-145, 72 h): 121 ± 18.4 µM; IC50 ([3]; Homo sapiens, LoVo, 72 h): 101 ± 10.9 µM; IC50 ([4]; Homo sapiens, MCF7, 72 h): 151 ± 9.31 µM; IC50 ([5]; Homo sapiens, Endothelial cell, 72 h): 25.8 ± 6.71 µM; IC50 ([6]; Homo sapiens, MCF-10A, 72 h): 147 ± 36.2 µM
O=c1cc(-c2ccccc2)oc2cc(O)cc(O)c12 [Compound 1, Chrysin] | 13 ± 1.29 | 28 ± 8.17 | 75 ± 26.1 |  | 0.084 ± 0.011 µmol trolox per µmol of tested | 0.004 ± 0.001 µmol trolox per µmol of tested | 22.9 ± 2.02 |  |  | IC50 ([6]; Homo sapiens, MCF-10A, 72 h exposure, SRB, normal cell line): 27 ± 12 µM; IC50 [10, 14]: 15.1 ± 1.99 µM
COc1ccc(-c2cc(=O)c3c(O)cc(O)cc3o2)cc1O [Compound 4, diosmetin] | 13.4 ± 3.02 | 15 ± 2.2 | 123 ± 37.4 |  | 1.712 ± 0.041 µmol trolox per µmol of tested | 0.008 ± 0.001 µmol trolox per µmol of tested | 14.4 ± 1.95 |  |  | IC50 [10, 14]: 8.39 ± 3.53 µM
O=C1CC(c2ccccc2)Oc2c(O)c(O)cc(O)c21 (centres unmarked) [Compound 13, 8-hydroxypinocembrin] |  |  |  | 12.861 ± 0.313 µmol trolox per µmol of tested | 20.763 ± 0.939 µmol trolox per µmol of tested | 9.164 ± 0.097 µmol trolox per µmol of tested | 148 ± 13.4 | about 130 fold | about 1800 fold | 
N.N.[Cl][Pt][Cl] [Cisplatin, reference compound] |  |  |  |  |  |  |  |  |  | IC50 [1]: 3.23 ± 0.77 µM; IC50 ([2]; 72 h exposure, SRB): 1.47 ± 0.12 µM; IC50 ([3]; 72 h exposure, SRB): 5.87 ± 1.72 µM; IC50 ([4]; 72 h exposure, SRB): 7.5 ± 1.32 µM; IC50 [5, 15]: 1.07 ± 0.05 µM; IC50 [6, 15]: 10.6 ± 1.17 µM; IC50 ([10]; 72 h exposure): 1.6 ± 0.33 µM
O=c1cc(-c2ccccc2)oc2c(O)c(O)cc(O)c12 [Compound 9, 8-hydroxychrysin] |  |  |  | 8.900 ± 0.582 µmol trolox per µmol of tested | 14.173 ± 1.591 µmol trolox per µmol of tested | 8.038 ± 0.061 µmol trolox per µmol of tested | 120 ± 2.24 | about 170 fold | about 2000 fold | 

The next lines start with results.

IC50 ([1]; Homo sapiens, LoVo/DX) [µM] | IC50 [3, 11] [µM] | IC50 [4, 12] [µM] | SMILES | TEAC FRAP [7] | TEAC ABTS [8] | TEAC DPPH [9] | IC50 [5, 13] [µM] | increase of antioxidant activity in ABTS test, biotransformation product vs substrate [8] | increase of antioxidant activity in DPPH test, biotransformation product vs substrate [9] | further results
 |  | 135 ± 20.3 | COc1ccc(C2CC(=O)c3c(O)cc(O)c(O)c3O2)cc1O (centres unmarked) [Compound 18, 8-hydroxyhesperetin] | 25.260 ± 0.909 µmol trolox per µmol of tested | 31.187 ± 1.353 µmol trolox per µmol of tested | 14.150 ± 0.229 µmol trolox per µmol of tested | 97.1 ± 5.15 | more than twice as active | 144 fold | increase of antioxidant activity in FRAP test, biotransformation product vs substrate ([7]; 8-hydroxylated product relative to the substrate from which it was obtained): 6 fold
 | 238 ± 35.4 |  | O=c1cc(-c2ccc(O)c(O)c2)oc2c(O)c(O)cc(O)c12 [Compound 11, 8-hydroxyluteolin] | 36.895 ± 0.432 µmol trolox per µmol of tested | 34.450 ± 1.016 µmol trolox per µmol of tested | 13.208 ± 0.080 µmol trolox per µmol of tested | 106 ± 1.72 | more than twice as active |  | 
 | 224 ± 15.3 |  | COc1ccc(-c2cc(=O)c3c(O)cc(O)c(O)c3o2)cc1O [Compound 12, 8-Hydroxydiosmetin] | 11.340 ± 0.203 µmol trolox per µmol of tested | 13.405 ± 0.826 µmol trolox per µmol of tested | 8.496 ± 0.040 µmol trolox per µmol of tested | 108 ± 15.4 |  |  | 
